Test results: patent publication US10335400B2, “Treatment of tauopathies with mGluR5 antagonists” (priority 2014, dated 2019)

Tests used:
[1] = biological target: bovine purified PP2A holoenzyme (Bos taurus, UniProt P67774); assay: In vitro PP2A activity assay with purified PP2A holoenzyme; type: biochemical; settings: purified PP2A holoenzyme in the presence or absence of BMAA
From the text: No effect of BMAA on PP2A activity was found.

[2] = tested on: mixed primary neuronal culture; assay: LDH release assay in mixed primary neuronal culture; type: cell-based, mouse; settings: 1 mM BMAA, 24 h
Experimental: Mouse hippocampal neuronal cultures were prepared from d 18 embryos as previously described (1). Briefly, C57BL/6 pregnant female mice from Charles River Laboratories were killed by cervical dislocation. All studies were performed in accordance with the recommendations in the Guide for the Care and Use of Laboratory Animals of the National Institutes of Health (2). The protocol was approved by Institutional Animal Care and Use Committee of the New York Institute for Basic Research in Developmental Disabilities. All surgeries were performed under anesthesia, and all efforts were made to minimize suffering. Embryos were removed and placed in cold Hibernate A (BrainBits, LLC), and all the following steps were performed in ice-cold Hibernate A, under a stereoscopic (dissection) microscope placed in a laminar flow hood. Fetal brains were removed carefully, and forebrains were separated. The hippocampus, including the cortex surrounding the area of the hippocampus, was dissected and cut into small pieces using microsurgical scissors. […]

motor neurons = settings: cited from earlier work
mGluR5-PP2A complex = biological target: T1, mGluR5-PP2A complex (Mus musculus, UniProt Q3UVX5); assay: Coimmunoprecipitation of PP2Ac with mGluR5 in primary neurons; type: cell-based; settings: primary neuronal cultures, 1 mM BMAA
T1 construct: endogenous in cells; host or cells: mouse primary hippocampal neuronal cultures
T1 sequence (Q3UVX5 19-1203, one chain of several): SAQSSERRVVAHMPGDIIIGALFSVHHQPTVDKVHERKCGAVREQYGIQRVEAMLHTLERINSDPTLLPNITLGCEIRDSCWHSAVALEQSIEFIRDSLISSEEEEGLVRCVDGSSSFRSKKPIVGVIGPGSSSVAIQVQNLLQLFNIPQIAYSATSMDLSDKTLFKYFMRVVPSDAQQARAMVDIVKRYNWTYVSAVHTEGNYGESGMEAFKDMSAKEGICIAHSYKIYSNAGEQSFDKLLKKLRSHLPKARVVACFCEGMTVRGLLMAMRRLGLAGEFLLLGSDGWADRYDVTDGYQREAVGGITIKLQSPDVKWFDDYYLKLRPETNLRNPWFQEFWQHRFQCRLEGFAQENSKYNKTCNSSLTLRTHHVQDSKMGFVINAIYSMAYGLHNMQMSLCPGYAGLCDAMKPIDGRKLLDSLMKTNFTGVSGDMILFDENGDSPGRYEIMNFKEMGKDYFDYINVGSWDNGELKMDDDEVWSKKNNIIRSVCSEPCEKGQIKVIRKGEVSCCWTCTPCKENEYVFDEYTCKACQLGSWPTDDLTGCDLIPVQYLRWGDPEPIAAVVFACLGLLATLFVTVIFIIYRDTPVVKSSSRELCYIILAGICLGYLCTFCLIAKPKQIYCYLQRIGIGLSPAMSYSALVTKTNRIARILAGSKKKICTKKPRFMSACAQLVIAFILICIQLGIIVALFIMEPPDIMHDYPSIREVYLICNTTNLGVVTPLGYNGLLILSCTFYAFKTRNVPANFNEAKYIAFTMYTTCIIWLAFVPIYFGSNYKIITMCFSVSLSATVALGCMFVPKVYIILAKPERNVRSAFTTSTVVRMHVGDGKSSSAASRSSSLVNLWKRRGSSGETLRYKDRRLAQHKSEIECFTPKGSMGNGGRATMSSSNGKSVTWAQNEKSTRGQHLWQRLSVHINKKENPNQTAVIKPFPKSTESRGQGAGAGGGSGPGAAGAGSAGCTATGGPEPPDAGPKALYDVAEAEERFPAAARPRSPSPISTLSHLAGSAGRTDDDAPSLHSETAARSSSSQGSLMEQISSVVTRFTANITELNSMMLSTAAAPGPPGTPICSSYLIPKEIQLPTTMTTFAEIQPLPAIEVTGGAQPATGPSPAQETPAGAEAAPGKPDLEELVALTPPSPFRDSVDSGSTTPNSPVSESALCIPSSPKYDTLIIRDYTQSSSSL
Experimental: Mouse hippocampal cell proteins were prepared with low-stringency lysis buffer [50 mM Hepes (pH 7.4), 10% (vol/vol) glycerol, 1.5 mM MgCl2, 5 mM NaF, 1 mM Na3VO4, 1 mM EDTA, 1 mM EGTA, 1% Nonidet P-40, 5 mM AEBSF, 10 μg/mL aprotinin, leupeptin, pepstatin] and were homogenized by several freeze-thaw cycles followed by water bath sonication. The homogenate was centrifuged at 14,000×g at 4° C. for 15 min. For transfection experiments with vector (DsRed) and with DsRed-PP2A catalytic subunit (PP2Ac), primary neurons were processed in a similar manner. The supernatants then were used for immunoprecipitation with mouse anti-PP2A (1D6; Millipore) followed by incubation with protein G-Sepharose (Thermo Scientific). The Western blots of immunoprecipitates were probed with rabbit anti-mGluR5 (Millipore) and rabbit anti-PP2Ac [R123d] (FIG. 55).

PP2A = assay: i.c.v. infusion of BMAA in neonatal rats: PP2Ac Tyr307 phosphorylation and PP2A activity; type: in vivo, rat; settings: i.c.v. BMAA 1.3 μmol
Experimental: Wistar rats were bred and maintained under standard environmental conditions (12-h light/dark cycles, 22° C.) and were allowed free access to food and water. The animal experiments were carried out in strict compliance with protocols approved by the Animal Welfare Committee of New York State Institute for Basic Research in Developmental Disabilities. On postnatal d 2 (PND2), pups were individually cryo-anesthetized on ice, and 2 μL of 1.3 μmol BMAA in PBS was injected into lateral ventricle using a 10-μL Hamilton syringe (Hamilton Syringe Co.). Control animals were injected with PBS in an identical manner. After infusion of BMAA, rats were killed within 1, 24, 48, 72, or 96 h, and the brains were used for Western blots and PP2A activity assays.
PP2A activity was assayed with homogenate of rat brain slices using the phosphatase ELISA described previously (5). Briefly, 96-well plates were precoated with a 17-aa phosphopeptide corresponding to tau amino acids 194-207 in which […] was replaced with phosphoserine and to which KKK were added at the C terminus (coating buffer, 35 mM NaHCO3). After overnight blocking with a protein-free blocking solution (Pierce), the enzymatic reaction was performed by adding 2 μg of cell lysate protein in 60 μL of reaction buffer [50 mM TrisHCl (pH 7.0), 2 mM MnCl2, 0.1 mg/mL BSA, 20 mM (β-mercaptoethanol] at 30° C. for 30 min (in the presence or absence of 15 nM of okadaic acid) in a moist chamber. The reaction was stopped by adding 150 μL of Pierce blocking solution containing 50 mM NaF, followed by an overnight incubation with monoclonal antibody Tau-1, which recognizes tau unphosphorylated at Ser^198, Ser^199, and Ser^202. HRP-conjugated secondary antibody treatment was for 60 min at room temperature. Finally 75 μL of 3,3′,5,5′-Tetramethylbenzidine substrate reagent (Sigma) was added, and the colorimetric development was measured using a microtiter plate reader at a wavelength of 650 nm.
Protein was fractionated by 10% SDS/PAGE, transferred to PVDF membrane, and then blocked with 5% skim milk for 1 h at room temperature. […] The protein bands were detected with the enhanced chemiluminescence reagents (Thermo Scientific). Band intensity was measured by Multi-Gauge V3 software (Fuji Photo Film).

bovine purified PP2A holoenzyme, sequence (Q32PI5 whole entry): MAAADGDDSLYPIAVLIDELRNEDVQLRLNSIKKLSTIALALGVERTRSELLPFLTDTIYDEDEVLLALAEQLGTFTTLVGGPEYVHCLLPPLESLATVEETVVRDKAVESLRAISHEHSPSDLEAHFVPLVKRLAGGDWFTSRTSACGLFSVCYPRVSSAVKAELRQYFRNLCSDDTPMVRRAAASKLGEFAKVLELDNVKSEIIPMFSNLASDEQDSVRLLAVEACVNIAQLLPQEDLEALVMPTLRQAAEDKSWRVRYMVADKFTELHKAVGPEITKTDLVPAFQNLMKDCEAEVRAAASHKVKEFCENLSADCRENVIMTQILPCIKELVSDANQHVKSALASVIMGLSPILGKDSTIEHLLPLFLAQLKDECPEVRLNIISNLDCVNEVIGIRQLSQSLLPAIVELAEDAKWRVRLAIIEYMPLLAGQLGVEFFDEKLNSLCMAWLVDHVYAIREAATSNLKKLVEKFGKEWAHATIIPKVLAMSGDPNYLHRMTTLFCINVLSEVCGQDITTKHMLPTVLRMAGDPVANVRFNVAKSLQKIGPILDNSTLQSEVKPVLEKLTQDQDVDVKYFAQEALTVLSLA
bovine purified PP2A holoenzyme, sequence (P67774 whole entry): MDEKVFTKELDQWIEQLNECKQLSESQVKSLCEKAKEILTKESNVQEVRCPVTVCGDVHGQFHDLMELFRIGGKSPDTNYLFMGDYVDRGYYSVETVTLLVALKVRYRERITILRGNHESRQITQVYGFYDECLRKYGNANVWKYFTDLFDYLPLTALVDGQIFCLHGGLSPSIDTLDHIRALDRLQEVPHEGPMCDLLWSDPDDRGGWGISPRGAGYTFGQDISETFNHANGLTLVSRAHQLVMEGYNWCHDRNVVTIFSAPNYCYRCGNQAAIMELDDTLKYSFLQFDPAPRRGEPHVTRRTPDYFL

Question: For `CNC[C@H](N)C(=O)O` [BMAA, β-N-methylamino-L-alanine], which “direct effect on PP2A activity” value [1] is on record?
Answer: No effect

Question: What about the “cell death (LDH release)” value [2] of the same compound?
Answer: caused cell death

Question: And the “BMAA concentration causing selective death of motor neurons” value (motor neurons)?
Answer: ≥ 30 µM

Question: What about the “association of PP2Ac with mGluR5” value (mGluR5-PP2A complex) of the same compound?
Answer: led to the dissociation

Question: What about the “PP2A activity in rat brain” value (PP2A) of the same compound?
Answer: decreased

Question: What about the “time at which the decrease in PP2A activity was most significant” value (PP2A) of the same compound?
Answer: 48 h

Question: What about the “time by which pTyr307-PP2Ac decreased to a normal level” value (PP2A) of the same compound?
Answer: 72-96 h

Question: What about the “level of phosphorylation of PP2Ac at Tyr307 in rat brains” value (PP2A; for 24-48 h) of the same compound?
Answer: increased markedly
